Laboratory results: paper PMC8875074, “Development of Bactericidal Peptides against Multidrug-Resistant Acinetobacter baumannii with Enhanced Stability and Low Toxicity” (International Journal of Molecular Sciences, 2022)
In brackets after ≈: the same amount, converted by molar mass.

What was measured:
MDR A. baumannii 2997 [1] = assay: MIC/MBC antimicrobial assay; assay type: cell-based; conditions: Acinetobacter baumannii; MDR strain 2997; normal media; triplicate, two independent experiments
Protocol: (§1) Bacterial cells Acinetobacter baumannii 10591 and 14B0091 were obtained from BCRC Taiwan. All the MDR strains were obtained from the hospital as gifts. The antimicrobial assay was performed as per the standard protocol; 50 µL of 10^6 CFU/mL of mid-log phase bacterial suspension was treated with 50 µL of candidate peptide and meropenem (Sigma: PHR1772) incubated at 37 °C for 960~1200 min. The clear wells corresponding to the lowest concentrations are reported as the minimum inhibitory concentration (MIC). Suspensions from the clear wells were plated on Mueller–Hinton agar (MHA) plates and incubated at 37 °C overnight. The lowest concentration corresponding to no growth was recorded as the minimum bactericidal concentration (MBC). To detect the effect of human serum (H3667, Sigma Aldrich, St. Louis, MO, USA) on the peptides, the media was replaced with 50% human serum-containing media. Similarly, to detect the effect of lung surfactant (SURVANTA®, beractant, AbbVie Inc., Lake Bluff, IL, USA (25 mg/mL)) on the antimicrobial activity of the peptide, the normal media was replaced with 5% lung surfactant-containing media. To analyse the bacterial killing kinetics, after the addition of the peptide to the bacterial suspension, 10 µL of broth was diluted 1000 times, plated at 30 min intervals, and allowed to incubate for 90 min. The bacterial load is expressed as CFU/mL as a function of time.

MDR A. baumannii 1019 [2] = assay: MIC/MBC antimicrobial assay; assay type: cell-based; conditions: Acinetobacter baumannii; MDR strain 1019; normal media; triplicate, two independent experiments
Protocol: as §1

MDR A. baumannii 3618 [3] = assay: MIC/MBC antimicrobial assay; assay type: cell-based; conditions: Acinetobacter baumannii; MDR strain 3618; normal media; triplicate, two independent experiments
Protocol: as §1

MDR A. baumannii 1033 [4] = assay: MIC/MBC antimicrobial assay; assay type: cell-based; conditions: Acinetobacter baumannii; MDR strain 1033; normal media; triplicate, two independent experiments
Protocol: as §1

MDR A. baumannii 2088 [5] = assay: MIC/MBC antimicrobial assay; assay type: cell-based; conditions: Acinetobacter baumannii; MDR strain 2088; normal media; triplicate, two independent experiments
Protocol: as §1

MDR A. baumannii 2982 [6] = assay: MIC/MBC antimicrobial assay; assay type: cell-based; conditions: Acinetobacter baumannii; MDR strain 2982; normal media; triplicate, two independent experiments
Protocol: as §1

MDR A. baumannii 1702 [7] = assay: MIC/MBC antimicrobial assay; assay type: cell-based; conditions: Acinetobacter baumannii; MDR strain 1702; normal media; triplicate, two independent experiments
Protocol: as §1

MDR A. baumannii 2962 = assay: Fractional inhibitory concentration (FIC) index assay; assay type: cell-based, Acinetobacter baumannii; conditions: strain 2962
Protocol: (§2) A 2-fold dilution of peptide in 50 µL of media was performed along the vertical axis of a 96-well plate. Similarly, 50 µL of the next drug was diluted 2-fold along the horizontal axis. Next, 50 µL of […] was added, and the standard MIC protocol was performed. The FIC index was calculated according to the following formula:FICI = FIC A + FIC B where FIC A is MIC A & B combined/MIC A and FIC B is MIC A & B combined/[…].

MDR A. baumannii 1607 = assay: as above; assay type: cell-based, Acinetobacter baumannii; conditions: strain 1607
Protocol: as §2

MDR A. baumannii 14B001 = assay: as above; assay type: cell-based, Acinetobacter baumannii; conditions: strain 14B001
Protocol: as §2

MDR A. baumannii 2997 [8] = assay: as above; assay type: cell-based, Acinetobacter baumannii; conditions: strain 2997
Protocol: as §2

MDR A. baumannii 1019 [9] = assay: as above; assay type: cell-based, Acinetobacter baumannii; conditions: strain 1019
Protocol: as §2

MDR A. baumannii 921 = assay: as above; assay type: cell-based, Acinetobacter baumannii; conditions: strain 921
Protocol: as §2

MDR A. baumannii 3618 [10] = assay: as above; assay type: cell-based, Acinetobacter baumannii; conditions: strain 3618
Protocol: as §2

MDR A. baumannii 2998 = assay: as above; assay type: cell-based, Acinetobacter baumannii; conditions: strain 2998
Protocol: as §2

MDR A. baumannii 1033 [11] = assay: as above; assay type: cell-based, Acinetobacter baumannii; conditions: strain 1033
Protocol: as §2

MDR A. baumannii 2088 [12] = assay: as above; assay type: cell-based, Acinetobacter baumannii; conditions: strain 2088
Protocol: as §2

MDR A. baumannii 2982 [13] = assay: as above; assay type: cell-based, Acinetobacter baumannii; conditions: strain 2982
Protocol: as §2

MDR A. baumannii 1702 [14] = assay: as above; assay type: cell-based, Acinetobacter baumannii; conditions: strain 1702
Protocol: as §2

[15] = Acinetobacter baumannii, drug alone, two experiments in triplicate

**Q.** `C[C@@H](O)[C@H]1C(=O)N2C(C(=O)O)=C(S[C@@H]3CN[C@H](C(=O)N(C)C)C3)[C@H](C)[C@H]12` [Meropenem, meropenem] was tested. Which MBC (MDR A. baumannii 2997 [1]) did it give?
**A.** 50 to 100 µg/mL (≈ 130 to 261 µM)

**Q.** And the MIC (MDR A. baumannii 2997 [1])?
**A.** 50 to 100 µg/mL (≈ 130 to 261 µM)

**Q.** And the MBC (MDR A. baumannii 1019 [2])?
**A.** 25 µg/mL (≈ 65.2 µM)

**Q.** What about the MIC (MDR A. baumannii 1019 [2]) of the same compound?
**A.** 25 µg/mL (≈ 65.2 µM)

**Q.** And the MBC (MDR A. baumannii 3618 [3])?
**A.** 50 to 100 µg/mL (≈ 130 to 261 µM)

**Q.** What about the MIC (MDR A. baumannii 3618 [3]) of the same compound?
**A.** 50 to 100 µg/mL (≈ 130 to 261 µM)

**Q.** And the MBC (MDR A. baumannii 1033 [4])?
**A.** 100 µg/mL (≈ 261 µM)

**Q.** What about the MIC (MDR A. baumannii 1033 [4]) of the same compound?
**A.** 50 µg/mL (≈ 130 µM)

**Q.** What about the MBC (MDR A. baumannii 2088 [5]) of the same compound?
**A.** > 100 µg/mL

**Q.** What about the MIC (MDR A. baumannii 2088 [5]) of the same compound?
**A.** > 100 µg/mL

**Q.** And the MBC (MDR A. baumannii 2982 [6])?
**A.** > 100 µg/mL

**Q.** What about the MIC (MDR A. baumannii 2982 [6]) of the same compound?
**A.** > 100 µg/mL

**Q.** And the MBC (MDR A. baumannii 1702 [7])?
**A.** 12.5 µg/mL (≈ 32.6 µM)

**Q.** What about the MIC (MDR A. baumannii 2962; [15]) of the same compound?
**A.** 50 µg/mL

**Q.** And the “MIC in Combination” value (MDR A. baumannii 2962; TP2-5 combined with meropenem)?
**A.** 25 µg/mL

**Q.** What about the “MIC in Combination” value (MDR A. baumannii 2962; TP2-6 combined with meropenem) of the same compound?
**A.** 25 µg/mL

**Q.** And the MIC (MDR A. baumannii 1607; [15])?
**A.** 25 µg/mL

**Q.** What about the “MIC in Combination” value (MDR A. baumannii 1607; TP2-5 combined with meropenem) of the same compound?
**A.** 25 µg/mL

**Q.** And the “MIC in Combination” value (MDR A. baumannii 1607; TP2-6 combined with meropenem)?
**A.** 25 µg/mL

**Q.** What about the MIC (MDR A. baumannii 14B001; [15]) of the same compound?
**A.** 400 µg/mL

**Q.** And the “MIC in Combination” value (MDR A. baumannii 14B001; TP2-5 combined with meropenem)?
**A.** 200 µg/mL

**Q.** And the “MIC in Combination” value (MDR A. baumannii 14B001; TP2-6 combined with meropenem)?
**A.** 200 µg/mL

**Q.** What about the MIC (MDR A. baumannii 2997 [8]; [15]) of the same compound?
**A.** 100 µg/mL

**Q.** What about the “MIC in Combination” value (MDR A. baumannii 2997 [8]; TP2-5 combined with meropenem) of the same compound?
**A.** 50 µg/mL

**Q.** And the “MIC in Combination” value (MDR A. baumannii 2997 [8]; TP2-6 combined with meropenem, first printed pair of the cells (before the slash))?
**A.** 50 µg/mL

**Q.** And the “MIC in Combination” value (MDR A. baumannii 2997 [8]; TP2-6 combined with meropenem, second printed pair of the cells (after the slash))?
**A.** 25 µg/mL

**Q.** And the MIC (MDR A. baumannii 1019 [9]; [15])?
**A.** 25 µg/mL

**Q.** And the “MIC in Combination” value (MDR A. baumannii 1019 [9]; TP2-5 combined with meropenem)?
**A.** 12.5 µg/mL

**Q.** What about the “MIC in Combination” value (MDR A. baumannii 1019 [9]; TP2-6 combined with meropenem) of the same compound?
**A.** 12.5 µg/mL

**Q.** What about the MIC (MDR A. baumannii 921; [15]) of the same compound?
**A.** 100 µg/mL

**Q.** What about the “MIC in Combination” value (MDR A. baumannii 921; TP2-5 combined with meropenem) of the same compound?
**A.** 100 µg/mL

**Q.** And the “MIC in Combination” value (MDR A. baumannii 921; TP2-6 combined with meropenem)?
**A.** 50 µg/mL

**Q.** And the MIC (MDR A. baumannii 3618 [10]; [15])?
**A.** 100 µg/mL

**Q.** And the “MIC in Combination” value (MDR A. baumannii 3618 [10]; TP2-5 combined with meropenem)?
**A.** 50 µg/mL

**Q.** What about the “MIC in Combination” value (MDR A. baumannii 3618 [10]; TP2-6 combined with meropenem) of the same compound?
**A.** 25 µg/mL

**Q.** What about the MIC (MDR A. baumannii 2998; [15]) of the same compound?
**A.** 200 µg/mL

**Q.** What about the “MIC in Combination” value (MDR A. baumannii 2998; TP2-5 combined with meropenem) of the same compound?
**A.** 200 µg/mL

**Q.** And the “MIC in Combination” value (MDR A. baumannii 2998; TP2-6 combined with meropenem)?
**A.** 100 µg/mL

**Q.** What about the MIC (MDR A. baumannii 1033 [11]; [15]) of the same compound?
**A.** 50 µg/mL

**Q.** What about the “MIC in Combination” value (MDR A. baumannii 1033 [11]; TP2-5 combined with meropenem) of the same compound?
**A.** 50 µg/mL

**Q.** And the “MIC in Combination” value (MDR A. baumannii 1033 [11]; TP2-6 combined with meropenem)?
**A.** 25 µg/mL

**Q.** What about the MIC (MDR A. baumannii 2088 [12]; [15]) of the same compound?
**A.** 200 µg/mL

**Q.** And the “MIC in Combination” value (MDR A. baumannii 2088 [12]; TP2-5 combined with meropenem)?
**A.** 100 µg/mL

**Q.** And the “MIC in Combination” value (MDR A. baumannii 2088 [12]; TP2-6 combined with meropenem)?
**A.** 100 µg/mL

**Q.** What about the MIC (MDR A. baumannii 2982 [13]; [15]) of the same compound?
**A.** 100 µg/mL

**Q.** And the “MIC in Combination” value (MDR A. baumannii 2982 [13]; TP2-5 combined with meropenem)?
**A.** 100 µg/mL

**Q.** And the “MIC in Combination” value (MDR A. baumannii 2982 [13]; TP2-6 combined with meropenem)?
**A.** 100 µg/mL

**Q.** And the MIC (MDR A. baumannii 1702 [14]; [15])?
**A.** 12.5 µg/mL

**Q.** And the “MIC in Combination” value (MDR A. baumannii 1702 [14]; TP2-5 combined with meropenem)?
**A.** 12.5 µg/mL

**Q.** And the “MIC in Combination” value (MDR A. baumannii 1702 [14]; TP2-6 combined with meropenem)?
**A.** 1.56 µg/mL
